In US20220193063A1, “METABOLITES OF GLP1R AGONISTS” (Pfizer Inc., priority 2020, published 2022):

What was measured:
[1] = test system: male Wistar-Han rat hepatocytes; test: In vitro metabolism of Compound 1 in rat cryopreserved hepatocytes; format: in vitro ADME; settings: 10 μM Compound 1, 7.5×10^5 cells/mL, 1 and 4 hrs composite sample, HPLC/UV/MS
Experimental: (§1) Male CD-1 mouse hepatocytes (lot YHL), male Wistar-Han rat hepatocytes (Celsis; product number: M000065; lot: SLA), female New Zealand rabbit hepatocytes (lot 1510147), male cryopreserved cynomolgus monkey hepatocytes (Celsis; product number: M00305; lot: DNB) and mixed-gender cryopreserved human hepatocytes (Bioreclamation; product number: S01988; lot: DCM) were obtained for the hepatocyte in-vitro assessments.
(§2) At time 0 hrs 550 μL aliquots were removed from incubations and quenched with 5 volumes of ACN containing 0.1% formic acid. At 1 and 4 hrs, 275 μL aliquots were removed and quenched as above; these were combined in the same tube to prepare a composite sample. For all hepatocyte experiments, samples were processed by centrifugation at 1900×g for 5 minutes, and then the supernatant was transferred to clean glass tubes and evaporated to dryness under a stream of N2 using a Turbovap at 37° C. Sample residues were reconstituted in mobile phase prior to analysis by HPLC/UV/MS^n.
(§3) Samples were analyzed by HPLC/UV/MS^n using a Thermo Orbitrap Elite mass spectrometer in conjunction with a Thermo Open Accela UHPLC system. A 3.0×150 mm, 2.5 μm Acquity CSH C18 HPLC column (Waters) was heated to 45° C. for separation of analytes. The mobile phase was a gradient of A): water containing 0.1% formic acid, and B): acetonitrile. The flow rate was 450 μL/min, and the following gradient program was utilized: […]
(§4) UV absorbance was monitored with a photo-diode array detector from 220-450 nm. The mass spectrometer was operated in positive-ion mode with a HESI ion source at a potential of 3.0 kV, and capillary and source heater temperatures of 380 and 300° C., respectively. Sheath, auxiliary, and sweep gas flows were set to 45, 10, and 2 units, respectively. Full scan mass spectra were acquired over the range 120-1200 m/z at a resolving power of 30,000 (specified at m/z 400). Data-dependent MS^n spectra were acquired in an automated fashion at 15,000 resolving power using CID and HCD fragmentation with normalized collision energy settings of 28 and 65 V, respectively.
(§5) Metabolites were characterized by comparisons of mass spectral fragmentation patterns with that of a Compound 1 standard. All HPLC/UV/MS^n data were processed using Xcalibur v. 2.2, and integrated UV peak areas were subjected to weighted UV binning procedures utilizing an Excel template.

[2] = test system: Male CD-1 mouse hepatocytes; test: In vitro metabolism of Compound 1 in mouse cryopreserved hepatocytes; format: in vitro ADME; settings: 10 μM Compound 1, 7.5×10^5 cells/mL, 1 and 4 hrs composite sample, HPLC/UV/MS
Experimental: as §1, §2, §3, §4, §5

[3] = test system: mixed-gender cryopreserved human hepatocytes; test: In vitro metabolism of Compound 1 in human cryopreserved hepatocytes; format: in vitro ADME; settings: 10 μM Compound 1, 7.5×10^5 cells/mL, 1 and 4 hrs composite sample, HPLC/UV/MS
Experimental: as §1, §2, §3, §4, §5

[4] = Metabolites of Compound 1 in rat bile following a 1.0 mg/kg IV bolus dose (bile duct cannulated rat); format: in vivo; settings: 1.0 mg/kg IV bolus dose of Compound 1, pooled bile 0-24 hrs, bile duct cannulated male rats
Experimental: (§6) Plasma and bile samples were obtained from a bile duct cannulated rat experiment (Study PK-0111) in which a 1.0 mg/kg IV bolus dose was administered to fed male rats (N=3). No control plasma was available from this experiment.
Bile samples (0-3, 3-7, and 7-24 hrs) from individual animals were pooled in proportion to the amount collect in each interval. Then 0.5 mL of each individual pool was combined to prepare a composite sample for analysis.
(§7) Pooled plasma and bile samples were extracted with ACN containing 0.1% formic acid, and after centrifugation at 1900×g, the supernatant was transferred to clean tubes and evaporated under N2 in a Turbovap set at 37° C. Residues were reconstituted in mobile phase (5:95 v:v ACN:0.1% aqueous formic acid) prior to analysis by HPLC/UV/MS^n.
as §3, §4, §5

[5] = Circulating metabolites of Compound 1 in rat plasma following a 1.0 mg/kg IV bolus dose; format: in vivo; settings: 1.0 mg/kg IV bolus dose of Compound 1, pooled plasma 0.033-24 hrs, male rats
Experimental: as §6
Clin Pharmacol Ther 1981; 29(3):408-13]. The entire volume of each replicate Hamilton pool was combined to create a single pooled sample (576 μL) for analysis.
as §7, §3, §4, §5

[6] = test system: male cryopreserved cynomolgus monkey hepatocytes; test: In vitro metabolism of Compound 1 in monkey cryopreserved hepatocytes; format: in vitro ADME; settings: 10 μM Compound 1, 7.5×10^5 cells/mL, 1 and 4 hrs composite sample, HPLC/UV/MS
Experimental: as §1, §2, §3, §4, §5

[7] = test system: human co-cultured hepatocytes (Hepatopack); test: In vitro metabolism of Compound 1 in human micropatterned co-cultured hepatocytes (Hepatopack); format: in vitro ADME; settings: Compound 1 tris salt 20 μM, human MPCC hepatocytes, 0, 2 and 7 days
Source text: Micro-patterned co-cultured (MPCC) hepatocyte 24-well plates containing human donors (16 wells each) were provided by Ascendance Biotechnology (formerly Hepregen Corp. (Medford, Mass.). [see Wang W W W, Khetani S R, Krzyzewski S, et al. Assessment of a Micropatterned Hepatocyte Coculture System to Generate Major Human Excretory and Circulating Drug Metabolites. Drug Metab Dispos 2010; 38(10):1900-51 The MPCCs were created at Ascendance Biotechnology and maintained in serum containing medium for 5-6 days to allow for stabilization of the co-cultures prior to shipment. A mixed-gender cryopreserved pool of 10 human donors (X008001-P; lot YFA) was used to seed the plates and was purchased from BioreclamationlVT (Westbury, N.Y.). MPCC hepatocytes are plated with fibroblasts in a 1:3 ratio with ˜25,000 hepatocytes/well in a 24-well plate. 24-Well MPCC plates were shipped to Pfizer, fresh medium (400 μL/well) was applied and cultures were kept at 37° C. with […] and 95% relative humidity for two days. Micropatterned co-cultures containing pooled hepatocytes were allowed 7 days to fully stabilize with respect to liver-specific functions. […] At respective time points (0, 2, and 7 days), the culture medium was removed and mixed with 4 volumes of ACN, then stored frozen at −40° C. until samples could be analyzed. Samples were subsequently processed by the addition of 2.5 mL of 1:1 ACN:MeOH containing 0.1% formic acid. After vortexing, the samples were centrifuged at 1900×g for 5 min, then the supernatant was transferred to 15 mL conical tubes and evaporated under N2 using a Turbovap set at 37° C. The residues were reconstituted in mobile phase (5:95 v:v ACN:0.1% aqueous formic acid) prior to analysis by HPLC/UV/MS^n.
as §3
as §4, with “Data-dependent MS^n spectra were acquired in an automated fashion at 15,000 resolving power using CID and HCD fragmentation with normalized collision energy settings of 28 and 65 V, respectively.” left out

human GLP-1R = human GLP-1R (Homo sapiens, UniProt P43220, L260F); test: CHO GLP-1R Clone C6 - Assay 2 (HTRF cAMP agonist assay, low receptor density)
Sequence of human GLP-1R (P43220 24-463 L260F): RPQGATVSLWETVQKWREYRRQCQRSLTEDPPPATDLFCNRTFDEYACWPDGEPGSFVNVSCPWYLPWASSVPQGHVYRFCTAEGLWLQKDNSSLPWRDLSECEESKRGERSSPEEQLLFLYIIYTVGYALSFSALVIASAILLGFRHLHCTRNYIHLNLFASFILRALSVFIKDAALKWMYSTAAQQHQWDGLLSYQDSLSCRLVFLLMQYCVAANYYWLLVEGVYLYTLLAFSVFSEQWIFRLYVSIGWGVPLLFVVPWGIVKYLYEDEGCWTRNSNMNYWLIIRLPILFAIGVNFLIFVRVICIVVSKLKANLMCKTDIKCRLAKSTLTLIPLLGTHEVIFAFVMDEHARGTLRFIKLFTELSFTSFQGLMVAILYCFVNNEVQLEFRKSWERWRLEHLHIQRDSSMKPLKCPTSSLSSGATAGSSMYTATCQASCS
Experimental: GLP-1R-mediated agonist activity was determined with a cell-based functional assay utilizing an HTRF (Homogeneous Time-Resolved Fluorescence) cAMP detection kit (cAMP HI Range Assay Kit; Cis Bio cat #62AM6PEJ) that measures cAMP levels in the cell. The method is a competitive immunoassay between native cAMP produced by the cells and exogenous cAMP labeled with the dye d2. The tracer binding is visualized by a mAb anti-cAMP labeled with Cryptate. The specific signal (i.e. energy transfer) is inversely proportional to the concentration of cAMP in either a standard or an experimental sample. […]
After 48 hours, the growth media was removed from the assay plate wells, and the cells were treated with 20 μL of the serially diluted compound in assay buffer for 30 minutes at 37° C. in a humidified environment (95% O2, 5% CO2). […] The plates were then incubated at room temperature and after 60 minutes, changes in the HTRF signal were read with an Envision 2104 multi-label plate reader using excitation of 330 nm and emissions of 615 and 665 nm. Raw data were converted to nM cAMP by interpolation from a cAMP standard curve (as described in the manufacturer's assay protocol) and the percent effect was determined relative to a saturating concentration of the full agonist GLP-1 (1 μM) included on each plate. […]

[8] = test system: female New Zealand rabbit hepatocytes; test: In vitro metabolism of Compound 1 in rabbit cryopreserved hepatocytes; format: in vitro ADME; settings: 10 μM Compound 1, 7.5×10^5 cells/mL, 1 and 4 hrs composite sample, HPLC/UV/MS
Experimental: as §1, §2, §3, §4, §5

Structure (SMILES): C[C@]1(c2ccc(Cl)cn2)Oc2cccc(C3CCN(Cc4nc5ccc(C(=O)O[C@@H]6O[C@H](C(=O)O)[C@@H](O)[C@H](O)[C@H]6O)cc5n4C[C@@H]4CCO4)CC3)c2O1 [Metabolite 751b]
- metabolite of Compound 1 observed in rat hepatocyte incubations [1]: observed
- metabolite of Compound 1 observed in mouse hepatocyte incubations [2]: observed
- metabolite of Compound 1 observed in human hepatocyte incubations [3]: observed
- metabolite of Compound 1 observed in human hepatocyte incubations ([3]; listed as m/z 751b): most abundant metabolites
- detected in rat bile [4]: observed
- detected in rat bile ([4]; listed as m/z 751b): detected
- detected in rat plasma [5]: observed
- detected in rat plasma ([5]; listed as m/z 751b): detected
- metabolite of Compound 1 observed in monkey hepatocyte incubations [6]: observed
- metabolite of Compound 1 observed in human Hepatopack system [7]: most abundant metabolites
- EC50 (human GLP-1R): 170 nM
- metabolite of Compound 1 observed in rabbit hepatocyte incubations [8]: observed
